The record followed here is US12201691B2, “Core-shell structure, preparation, medicine for external application, tape agent and cosmetic product” (SEKISUI CHEMICAL CO., LTD., priority 2017, dated 2025).

Where a name gives a salt, the structure may show the parent alone.

A short description of data set [1]: Octanol/water partition coefficient. Type of data set: physicochemical. The following applies: Log10(concentration in octanol phase/concentration in aqueous phase), aqueous buffer of pH 7. As for the experimental part:
Note that, in the present invention, the octanol/water partition coefficient is determined based on active ingredient concentration of each phase obtained by adding an active ingredient to a flask containing octanol and an aqueous buffer of pH 7, shaking the flask, and then determining the concentration. Specifically, the partition coefficient can be determined by calculation using an equation: Octanol/water partition coefficient=Log10(concentration in an octanol phase/concentration in an aqueous phase).

In data set [2] the test system is dorsal skin of a rabbit. Briefly: Primary irritation index of active ingredients (4% by weight in Plastibase). Type of data set: in vivo. The following applies: active ingredient 4% by weight in Plastibase, Draize scores at 24 and 72 hours. As for the experimental part: Low skin irritation means having a primary irritation index (P.I.I.) of 5 or less. Note that, the primary irritation index can be measured by a method described below.
An active ingredient is added to an ointment base Plastibase (manufactured by Taisho Pharmaceutical Co., Ltd.) such that its content reaches 4% by weight based on the total weight, mixed, and dispersed therein to produce a formulation.
The dorsal skin of a rabbit is shaved with an electric clipper (with an electric shaver as required). Healthy skin at two points on either side of the dorsal mid-line of the dorsal skin, that is, at four points in total, is used as administration sites. Next, the formulation prepared is taken with a spatula and spread evenly on pieces of lint each having a size of 2 cm×2 cm, and the pieces are attached onto the administration sites. The lint pieces are fixed by covering with a non-woven adhesive bandage (manufactured by Nichiban Co., Ltd., MESHPORE, No. 50). Then, the administration sites are altogether wrapped with gauze and then sealed by covering with an adhesive cloth elastic bandage (manufactured by Nichiban Co., Ltd., ELASTPORE, No. 100).
Specifically, individual skin reaction scores (sum of erythema and eschar formation and edema formation) at the administration sites of each rabbit are calculated for each administration specimen at each observation time. […] Specifically, the following equations (1) and (2) are used for the calculation.

For `NC(=O)CC[C@@H]1NC(=O)[C@H](Cc2ccccc2)NC(=O)[C@H](Cc2ccc(O)cc2)NC(=O)[C@@H](N)CSSC[C@@H](C(=O)N2CCC[C@H]2C(=O)N[C@@H](CCCN=C(N)N)C(=O)NCC(N)=O)NC(=O)[C@H](CC(N)=O)NC1=O` [[Arg-8]-Vasopressin], the logD in data set [1] is -4.8.

As for `CC(C(=O)O)c1ccc(CC2CCCC2=O)cc1` (stereo not drawn) [loxoprofen sodium dihydrate], the logD in data set [1] amounted to 0.8. Also, the “primary irritation index (P.I.I.)” value in data set [2] was 0.3.

As to `CC12CC3CC(C)(C1)CC(N)(C3)C2` [memantine hydrochloride], the “primary irritation index (P.I.I.)” value in data set [2] worked out at 2.5.

As for `CCN(C)C(=O)Oc1cccc([C@H](C)N(C)C)c1` [rivastigmine], the “primary irritation index (P.I.I.)” value in data set [2] turned out to be 0.5.

Turning to `CCCc1nc(C)c2c(=O)[nH]c(-c3cc(S(=O)(=O)N4CCN(CC)CC4)ccc3OCC)nn12` [vardenafil hydrochloride hydrate], in data set [1], the octanol/water partition coefficient was 0.0.
